Data as given in publication PMC12340957, “Interactions between Lipopolysaccharide and Peptide Bacteriocin BacSp222 Influence Their Biological Activities” (ACS Infectious Diseases, 2025).
Ends that are not written are not given here. * marks the point of attachment. For = O=C*

Legend:
[1] = Gel filtration of LPS, BacSp222 and complexes; type: physicochemical
Description: Gel filtration was conducted on a Superdex 200 Increase 10/300 GL (Cytiva, Marlborough, MA, USA) column using an UltiMate 3000 HPLC apparatus (Thermo, Waltham, MA, USA). The separations were performed at room temperature in 50 mM NH4COOH pH 5.8 at a flow rate of 0.6 mL/min. The spectrophotometric detection was conducted at 215 and 280 nm, and before separations, the column was calibrated using tryptophan (204 Da), […] (75 kDa), aldolase (158 kDa), ferritin (440 kDa), and Blue Dextran 2000 (2 MDa). The following samples were separated: (1) 375 μg of LPS O55:B5 (IEC), (2) 375 μg of LPS O111:B4 (PE), (3) 75 μg of BacSp222, (4) 375 μg of LPS O55:B5 (IEC) + 75 μg BacSp222, and (5) 375 μg of LPS O111:B4 (PE) + 75 μg BacSp222. All above solutions were prepared in phosphate-buffered saline (PBS) without Ca^2+ and Mg^2+ (Gibco, Paisley, UK) and were preincubated before separation for 15 min at 37 °C. The fractions containing LPS O55:B5 alone and LPS-BacSp222 complex, visible as peaks eluting at 12.5–14 min and 12.5–16 min, both marked by arrows in Figure , were manually collected, freeze-dried, and subjected to sodium dodecyl sulfate polyacrylamide gel electrophoresis (SDS-PAGE) under reducing conditions. […]

[2] = system: human neutrophils; parameters: method as in number not given; conditions: ref number not given; cited from earlier work

For-MAGLLRFLLSKGRALYNWAKSHVGKVWEWLKSGATYEQIKEWIENALGWR [BacSp222]
BacSp222 peak at 36 min after incubation with LPS ([1]; 375 μg LPS + 75 μg BacSp222, 15 min, 37 °C, peptide referred to as "the bacteriocin"): disappears completely
apparent molecular mass, gel filtration (peptide peak) ([1]; peak at 36 min, Superdex 200 Increase, 50 mM NH4COOH pH 5.8, 0.6 mL/min, 215 nm, room temperature): 5.5 kDa
activation of human neutrophils (ROS, NETs) [2]: cannot activate human neutrophils to produce reactive oxygen species (ROS) and induce the production of extracellular neutrophil traps (NETs)
